We go through three molecules from patent US9737517B2, “Pharmaceutical use of hexahydro-dibenzo[a,g]quinolizine compounds” (SHANGHAI INSTITUTE OF MATERIA MEDICA, CHINESE ACADEMY OF …, priority 2013, dated 2017).

Assay [1] deals with T1, α1A-AR (Homo sapiens, UniProt P35348).
T1 construct: expressed in transfected cells; host or cells: HEK293
T1 sequence (P35348 1-466): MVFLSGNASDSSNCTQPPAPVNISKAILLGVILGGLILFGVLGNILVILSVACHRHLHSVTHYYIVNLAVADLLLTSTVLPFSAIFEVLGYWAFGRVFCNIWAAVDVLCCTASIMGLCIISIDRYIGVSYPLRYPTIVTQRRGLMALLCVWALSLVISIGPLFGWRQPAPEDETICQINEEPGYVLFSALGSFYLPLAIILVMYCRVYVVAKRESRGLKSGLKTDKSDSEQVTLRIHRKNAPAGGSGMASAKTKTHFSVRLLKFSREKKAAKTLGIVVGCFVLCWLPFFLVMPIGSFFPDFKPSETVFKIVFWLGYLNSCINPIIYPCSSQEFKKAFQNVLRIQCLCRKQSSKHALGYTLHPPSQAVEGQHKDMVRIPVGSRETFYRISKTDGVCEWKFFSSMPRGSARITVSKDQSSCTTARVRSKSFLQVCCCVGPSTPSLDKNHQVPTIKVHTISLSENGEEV
In words: Tag-lite receptor binding assay, HEK293 cells expressing SNAP-α1A-AR. The following applies: for IC50: Tag-lite binding, HEK293 SNAP-α1A-AR; for α1B/α1A: ratio of Tag-lite binding values. An excerpt:
(§1) Tag-lite assay was used to study receptor binding activity. Tag-lite assay was a combination of SNAP-Tag and HTRF technology, and was used to analyze surface receptors on live cell. SNAPs were small tag fusion proteins which could irreversibly, specifically and covalently bind to substrates via benzylmethyl, and the substrates were benzylmethyl guanine and benzylmethyl cytosine. Substrates and various dyes formed derivatives, and through covalent reaction, the dye was labeled onto SANPs. Plasmid was constructed using pSNAP and α1-AR encoding gene. After transfection into cells, N-terminal fusion protein of SNAP and α1-AR was expressed. The substrate and HTRF fluorescent dye (donor compound Lumi4-Tb) formed a derivative which reacted with SANP-α1-AR fusion protein so that Tb was labeled onto α1-AR. After adding acceptor fluorescent dye-labeled ligand, the receptor and ligand binding experiment was performed.
(§2) HEK293 cells stably expressing SNAP-α1A-AR, SNAP-α1B-AR, SNAP-α1D-AR were seeded in 3 cm dishes, and cultured for 24 hours. 100 nM Tag-lite SNAP Lumi4Tb was added and incubated for 1 h in an incubator. Cells were detached and washed with a labeling buffer for 4 times, and then was added into a 384-well plate in a volume of 10 μL per well. […] After incubation at room temperature for 1 hour, fluorescence intensity changes caused by cell receptor and ligand changes were detected using 665 nm (acceptor) and 620 nm (donor) at same time.
(§3) After incubation with different drugs, the reaction rate of cells to 1-AR fluorescein-labeled known ligand was calculated as follows: Reaction rate %=(D−B)/(S−B)*100%
(§4) The reaction rate of the same drug at different doses was tested using GraphPad Prism software by non-linear regression analysis, and the dose-response curve was obtained and Ki values was measured. Data were obtained from three separate experiments, and each experiment includes three duplicate wells.

The target of assay [2] is T2, α1B-AR (Homo sapiens, UniProt P35368).
T2 construct: expressed in transfected cells; host or cells: HEK293
T2 sequence (P35368 1-520): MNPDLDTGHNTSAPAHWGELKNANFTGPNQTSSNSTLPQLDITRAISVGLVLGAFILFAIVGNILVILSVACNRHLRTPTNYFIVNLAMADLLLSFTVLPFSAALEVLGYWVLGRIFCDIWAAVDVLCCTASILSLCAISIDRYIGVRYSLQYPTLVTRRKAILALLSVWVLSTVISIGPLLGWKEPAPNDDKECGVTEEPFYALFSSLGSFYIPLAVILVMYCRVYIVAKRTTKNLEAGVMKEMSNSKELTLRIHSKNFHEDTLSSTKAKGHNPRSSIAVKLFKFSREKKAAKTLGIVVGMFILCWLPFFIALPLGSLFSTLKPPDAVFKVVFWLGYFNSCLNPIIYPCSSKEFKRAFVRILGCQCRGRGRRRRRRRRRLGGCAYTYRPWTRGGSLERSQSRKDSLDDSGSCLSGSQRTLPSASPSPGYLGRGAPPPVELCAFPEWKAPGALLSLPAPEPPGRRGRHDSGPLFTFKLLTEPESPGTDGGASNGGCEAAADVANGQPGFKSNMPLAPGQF
In words: Tag-lite receptor binding assay, HEK293 cells expressing SNAP-α1B-AR.
From the text: as §1, §2, §3, §4

Assay [3] relates to urethra smooth muscle. In words: In vitro urethra smooth muscle experiment (norepinephrine-induced contraction). Also noted: species or system Wistar rats; Urethra inhibition rate (%): concentration or dose not given beside the values. The settings on record: for IC50: isolated rat prostatic urethra, norepinephrine 3×10^−4 mol/L; for Urethra inhibition rate (%): norepinephrine-induced contraction; for Aorta/Urethra: selectivity ratio of IC50 values. On the procedure:
Healthy male Wistar rats were hit head to cause faint. The abdominal cavity and the pubic symphysis was quickly cut so as to quickly remove the prostatic urethra, which was immediately placed into a dish filled with 4° C. Kerbs-Henseleit solution (K-H solution). The surrounding tissue were carefully separated, and muscle strips about 3-5 mm were obtained, and the lower end was fixed onto a 20 mL of thermostatic bath and the upper end was connected onto a pressure transducer. Nutrient liquid was K-H solution, and carbogen (95% oxygen and 5% carbon dioxide) was aerated, and the bath temperature was 37° C., and resting tension applied was 0.5 g. The nutrient liquid was replaced every 6-8 mins. Until baseline stabilized, norepinephrine was added with a final concentration of 3×10^−4 mol/L in bath tube. When the contraction curve reached the highest point, it was rinsed immediately to recover to baseline levels. When baseline was stabilized, test drug with different concentrations was added respectively, and incubated 3-5 mins. 60 μL 1×10^−1 M norepinephrine was added with a final concentration of 3×10^−4 mol/L in bath tube, and the contraction curve was recorded.

In assay [4] the test system is vascular smooth muscle (thoracic aorta). In words: In vitro vascular smooth muscle experiment (norepinephrine-induced contraction of thoracic aorta rings). Also noted: species or system Wistar rats. The following applies: isolated rat thoracic aorta rings, norepinephrine 10^−7 mol/L. The protocol: Healthy male Wistar rats were hit head to cause faint. The abdominal cavity was quickly cut, and the thoracic aorta was taken out. The attached tissue was separated and cut into 2-3 mm vascular rings. The experiment was carried out in the same manner as in urethral smooth muscle experiment. The resting tension applied was 1 g, and when baseline was stabilized, norepinephrine was added with a final concentration of 10^−7 mol/L in bath tube. When the contraction curve reached the highest point, rinse was performed immediately to recover to baseline levels. When baseline was stabilized, test drug with different concentrations was added respectively, and incubated 3-5 mins. 20 μL 1×10^−4 M norepinephrine was added with a final concentration of 10^−7 mol/L in bath tube, and contraction curve was recorded.

The term IC50 denotes the midpoint of a concentration-inhibition curve.

Molecules are shown by their SMILES.

For `COc1cc2c(cc1OC)CN1CCc3cc4c(cc3[C@@H]1C2)OCO4` [DC037009, S-(−)-2,3-methylenedioxy-10,11-dimethoxy-5,8,13,13a-tetrahydro-6H-dibenzo[a,g]quinolizine], in assay [1], the 50% inhibitory concentration (IC50) came out at 2.83 nM and the α1B/α1A stood at 45.3. Further, the concentration for half-maximal inhibition (IC50) in assay [2] was found to be 128 nM. This molecule also came in with an IC50 in assay [3] of 1.66 nM. Moreover, in assay [3] (isolated rat tissues), the “selectivity (Aorta/Urethra) relative to Silodosin” value stood at 11 folds, the “selectivity (Aorta/Urethra) relative to tamsulosin” value is on record as 1671 folds and the Aorta/Urethra worked out at 873. Further, in assay [3] (isolated rat urethra), the “urethra suppression rate compared with positive drugs” value was “comparable to that of the positive drugs” and the “Urethra inhibition rate (%)” value is recorded as 80%. In addition, the IC50 in assay [4] was determined as 1420 nM.
As to `COc1cc2c(cc1OCc1ccccc1)C[C@H]1c3cc4c(cc3CCN1C2)OCO4` [DC037016], the concentration for half-maximal inhibition (IC50) in assay [1] turned out to be 16.6 nM; in assay [2], 560 nM; in assay [3], 5.12 nM; in assay [4], 10000 nM. Moreover, in assay [1], the α1B/α1A amounted to 33.8. Besides, the “Urethra inhibition rate (%)” value in assay [3] (isolated rat urethra) was found to be 38%. For the same molecule, the Aorta/Urethra in assay [3] (isolated rat tissues) is given as 1953.
Take `C[C@H](Cc1cc2c(c(C(N)=O)c1)N(CCCO)CC2)NCCOc1ccccc1OCC(F)(F)F` [Silodosin, reference compound]: the half-inhibitory concentration (IC50) in assay [1] stood at 0.07 nM; in assay [2], 0.61 nM; in assay [3], 0.82 nM; in assay [4], 63 nM. Also, the α1B/α1A in assay [1] is on record as 8.7. In assay [3] (isolated rat urethra), the “Urethra inhibition rate (%)” value worked out at 88%. In addition, the Aorta/Urethra in assay [3] (isolated rat tissues) was 76.8.
